Source: PubChem BioAssay (NCI)
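Interpolation was linear, between the two tested concentrations surrounding the appropriate level; five concentrations were tested over 48 hours in 96-well plates. TGI: total growth inhibition.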 Where a SMILES comes first, the peptide text is derived from it. The star is where a group is joined. Boc = CC(C)(C)OC(=O)*

Columns and labels:
Assay in all cases: NCI tumour cell line growth inhibition, 48 h
[1] = system: HS 578T breast
[2] = system: NCI/ADR-RES ovarian
[3] = system: MDA-MB-231 breast
[4] = system: DU-145 prostate
[5] = system: BT-549 breast
[6] = system: M19-MEL melanoma
[7] = system: DMS 114 small cell lung
[8] = system: SNB-78 CNS
[9] = system: KM20L2 colon
[10] = system: DMS 273 small cell lung
[11] = system: HOP-18 NSCLC
[12] = system: XF 498 CNS

Row | SMILES | TGI [1] [µM] | TGI [2] [µM] | TGI [3] [µM] | TGI [4] [µM] | TGI [5] [µM] | TGI [6] [µM] | TGI [7] [µM] | TGI [8] [µM] | TGI [9] [µM] | TGI [10] [µM] | TGI [11] [µM] | TGI [12] [µM]
1 | Oc1[nH]c2ccccc2c1N=NC(=S)N1CCCC1 | > 72.9 | 6.03 | 55.7 | > 100 | 22.8 | – | – | – | – | – | – | –
2 | O=C(N/C(=C/c1ccc(Cl)cc1)c1nc2ccccc2c(=O)n1Nc1ccc([N+](=O)[O-])cc1[N+](=O)[O-])c1ccccc1 | > 100 | > 100 | > 100 | – | > 100 | – | – | – | – | – | – | –
3 | COC(=O)c1cc(C)n(NC(=O)OC(C)(C)C)c1C | – | – | – | – | – | > 100 | > 100 | > 100 | > 100 | > 100 | – | –
4 | O=S(Cc1cc2c(cc1Br)OCO2)c1ccccc1 (configuration not stated) | – | – | – | – | – | > 100 | 61.8 | > 100 | > 100 | > 100 | > 100 | –
5 | Nn1c(N=Nc2c(O)[nH]c3ccccc23)n[nH]c1=S | – | – | – | – | – | > 100 | > 100 | > 100 | > 100 | – | > 100 | 94
6 | CC(C)(C)c1cc(C(C)(C)C)c2sc(=S)oc2c1O | 20.4 | 24.4 | 26.7 | 25.5 | 23.6 | – | – | – | – | – | – | –
7 | CC(C)(C)OC(=O)N/N=C(/N)c1ccccc1 | – | > 100 | > 100 | > 100 | > 100 | – | – | – | – | – | – | –
8 | N#CC(c1ccccc1)N(CCc1ccccc1)C(=O)Oc1ccccc1 (configuration not stated) | > 100 | > 100 | > 100 | > 100 | > 100 | – | – | – | – | – | – | –
9 | CN(C)/C=N/S(=O)(=O)c1nn2c(C=O)c(-c3ccc([N+](=O)[O-])cc3)nc2s1 | > 71.8 | > 100 | > 81.5 | > 41.6 | 25.5 | – | – | – | – | – | – | –
10 | CCOC(=O)C(CC(C)C)NC(=O)C(Cc1ccccc1)NC(=O)CNC(=O)OC(C)(C)C (stereo not drawn) (Boc-Gly-Phe-Leu-OEt; configuration not given here) | 96 | > 100 | – | 43.6 | 50.9 | – | – | – | – | – | – | –
11 | CCOc1ccc(NC(=O)CCC(=O)NN)cc1 | – | – | – | – | – | – | > 100 | > 100 | > 100 | > 100 | > 100 | 95
12 | COc1ccccc1OC(=O)/C=C/c1ccccc1 | > 100 | > 100 | > 100 | > 100 | > 100 | – | – | – | – | – | – | –
13 | COC(=O)/C(=N\O)C(C(=O)C=C(C)C)C(=O)C(=O)Nc1ccccc1C (configuration not stated) | – | – | – | – | – | > 100 | > 100 | > 100 | > 100 | > 100 | > 100 | > 100
14 | NCCc1ccc2c(c1)C(=O)c1c(O)ccc(O)c1C2=O | > 100 | > 82.9 | > 27.8 | > 100 | > 100 | – | – | – | – | – | – | –
15 | CCOC(=O)C(Cc1cn(S(=O)(=O)c2ccc(C)cc2)cn1)P(=O)(OCC)OCC (configuration not stated) | > 100 | > 100 | > 100 | > 100 | > 100 | – | – | – | – | – | – | –
